Where two headings read alike, the source gives them in different places.
Tests used:
BTK = target: T1, BTK (Homo sapiens, UniProt Q06187); assay: Inhibitory activity against BTK, ADP-Glo Kinase system (Promega); format: biochemical
T1 construct: purchased Signalchem B10-10H
Summary of the method: (§1)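 ADP-Glo luminescent ADP detection with recombinant human ITK (4 ng/reaction) or BTK (10 ng/reaction) and poly(Glu4,Tyr1) substrate at 0.2 µg/µl. Buffer: Tris pH 7.5, MgCl2, MnCl2, BSA, DTT. ATP 1 mM or Km (BTK 10 µM, ITK 25 µM); 1% DMSO; 1 h at 30°C; IC50 from curve fit.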

ITK = target: T2, ITK (Homo sapiens, UniProt Q08881); assay: Inhibitory activity against ITK, ADP-Glo Kinase system (Promega); format: biochemical
T2 construct: purchased Signalchem I13-11G-10
T2 sequence (Q08881 1-620): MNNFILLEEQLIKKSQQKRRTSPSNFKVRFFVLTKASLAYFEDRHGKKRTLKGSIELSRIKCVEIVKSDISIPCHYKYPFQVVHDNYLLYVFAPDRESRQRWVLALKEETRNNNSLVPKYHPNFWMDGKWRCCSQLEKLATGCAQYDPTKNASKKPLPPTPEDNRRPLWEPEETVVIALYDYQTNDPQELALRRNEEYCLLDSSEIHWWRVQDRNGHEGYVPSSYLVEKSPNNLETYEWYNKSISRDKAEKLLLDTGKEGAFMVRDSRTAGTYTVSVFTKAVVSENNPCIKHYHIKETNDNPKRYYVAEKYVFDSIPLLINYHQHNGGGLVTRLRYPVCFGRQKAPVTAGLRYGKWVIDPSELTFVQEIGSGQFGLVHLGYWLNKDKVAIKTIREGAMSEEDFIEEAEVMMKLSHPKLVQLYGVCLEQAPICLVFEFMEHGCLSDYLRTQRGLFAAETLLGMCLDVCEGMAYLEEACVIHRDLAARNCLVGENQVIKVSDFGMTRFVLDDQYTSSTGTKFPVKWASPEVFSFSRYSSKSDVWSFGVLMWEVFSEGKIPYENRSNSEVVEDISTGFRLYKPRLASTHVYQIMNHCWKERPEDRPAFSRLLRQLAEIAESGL
Summary of the method: as §1

[1] = 1mM ATP, read-out: BTK IC50(nM) 1mM ATP
[2] = 1mM ATP, read-out: ITK IC50(nM) 1mM ATP

T1 sequence (Q06187 whole entry): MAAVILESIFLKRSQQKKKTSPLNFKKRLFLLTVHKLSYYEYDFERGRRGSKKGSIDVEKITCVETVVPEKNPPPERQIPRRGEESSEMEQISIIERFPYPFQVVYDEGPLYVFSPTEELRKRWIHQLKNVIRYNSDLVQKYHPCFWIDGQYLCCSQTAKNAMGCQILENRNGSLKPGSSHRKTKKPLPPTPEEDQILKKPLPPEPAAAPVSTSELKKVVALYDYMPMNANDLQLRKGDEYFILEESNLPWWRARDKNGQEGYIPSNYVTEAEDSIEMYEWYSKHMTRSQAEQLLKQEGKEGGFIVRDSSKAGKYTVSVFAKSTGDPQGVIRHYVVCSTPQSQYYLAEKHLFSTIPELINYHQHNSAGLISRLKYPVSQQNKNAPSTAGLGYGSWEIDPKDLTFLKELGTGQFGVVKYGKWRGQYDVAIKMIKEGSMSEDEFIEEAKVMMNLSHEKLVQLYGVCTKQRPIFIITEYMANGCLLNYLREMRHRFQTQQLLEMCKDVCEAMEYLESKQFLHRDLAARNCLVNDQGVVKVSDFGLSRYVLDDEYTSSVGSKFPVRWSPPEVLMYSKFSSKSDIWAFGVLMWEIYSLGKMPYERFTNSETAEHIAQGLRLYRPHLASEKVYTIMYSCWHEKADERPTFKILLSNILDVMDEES

Row | SMILES | IC50 (BTK; Km ATP (BTK: 10 uM), read-out: BTK IC50(nM) Km ATP) [nM] | IC50 (ITK; Km ATP (ITK: 25uM), read-out: ITK IC50(nM) Km ATP) [nM] | IC50 (BTK; [1]) [nM] | IC50 (ITK; [2]) [nM]
1 | C=CC(=O)N1CC[C@H](Oc2nc(Nc3ncc(C)s3)cc3c2ccn3CC)C1 [Example 125, (S)-1-(3-((1-ethyl-6-((5-methylthiazol-2-yl)amino)-1H-pyrrolo[3,2-c]pyridin-4-yl)oxy)pyrrolidin-1-yl)prop-2-en-1-one] | ≤ 20 | ≤ 20 | – | –
2 | C=CC(=O)N1CC[C@H](Oc2nc(Nc3ncc(C)s3)cc3c2ccn3CCC)C1 [Example 126, (S)-1-(3-((6-((5-methylthiazol-2-yl)amino)-1-propyl-1H-pyrrolo[3,2-c]pyridin-4-yl)oxy)pyrrolidin-1-yl)prop-2-en-1-one] | – | – | ≤ 20 | ≤ 20
3 | C=CC(=O)N1CC[C@H](Oc2nc(Nc3ncc(C)s3)cc3c2ccn3CCOC)C1 [Example 127, (S)-1-(3-((1-(2-methoxyethyl)-6-((5-methylthiazol-2-yl)amino)-1H-pyrrolo[3,2-c]pyridin-4-yl)oxy)pyrrolidin-1-yl)prop-2-en-1-one] | – | – | ≤ 20 | ≤ 20
4 | C=CC(=O)N1CC[C@H](Oc2nc(Nc3ncc(C)s3)cc3c2ccn3CC2CCCC2)C1 [Example 128, (S)-1-(3-((1-(cyclopentylmethyl)-6-((5-methylthiazol-2-yl)amino)-1H-pyrrolo[3,2-c]pyridin-4-yl)oxy)pyrrolidin-1-yl)prop-2-en-1-one] | – | – | ≤ 20 | ≤ 20
5 | C=CC(=O)N1CC[C@H](Oc2nc(Nc3ncc(C)s3)cc3c2ccn3CC2CCCCC2)C1 [Example 129, (S)-1-(3-((1-(cyclohexylmethyl)-6-((5-methylthiazol-2-yl)amino)-1H-pyrrolo[3,2-c]pyridin-4-yl)oxy)pyrrolidin-1-yl)prop-2-en-1-one] | – | – | ≤ 20 | ≤ 20
6 | C=CC(=O)N1CC[C@H](Oc2nc(Nc3ncc(C)s3)cc3c2ccn3C)C1 [Example 130, (S)-1-(3-((1-methyl-6-((5-methylthiazol-2-yl)amino)-1H-pyrrolo[3,2-c]pyridin-4-yl)oxy)pyrrolidin-1-yl)prop-2-en-1-one] | – | – | ≤ 20 | ≤ 20
7 | C=CC(=O)N1C[C@H](F)[C@H](Oc2nc(Nc3ncc(C)s3)cc3c2ccn3C)C1 [Example 131, 1-((3S,4R)-3-fluoro-4-((1-methyl-6-((5-methylthiazol-2-yl)amino)-1H-pyrrolo[3,2-c]pyridin-4-yl)oxy)pyrrolidin-1-yl)prop-2-en-1-one] | – | – | ≤ 20 | ≤ 20
8 | C=CC(=O)N1C[C@H](F)[C@H](Oc2nc(Nc3ncc(C)s3)cc3c2ccn3CC2CCCC2)C1 [Example 132, 1-((3R,4S)-3-((1-(cyclopentylmethyl)-6-((5-methylthiazol-2-yl)amino)-1H-pyrrolo[3,2-c]pyridin-4-yl)oxy)-4-fluoropyrrolidin-1-yl)prop-2-en-1-one] | – | – | ≤ 20 | ≤ 20
9 | C=CC(=O)N1CC[C@H](Oc2nc(Nc3ncc(C)s3)cc3c2ccn3CC2CCOCC2)C1 [Example 133, (S)-1-(3-((6-((5-methylthiazol-2-yl)amino)-1-((tetrahydro-2H-pyran-4-yl)methyl)-1H-pyrrolo[3,2-c]pyridin-4-yl)oxy)pyrrolidin-1-yl)prop-2-en-1-one] | – | – | ≤ 20 | ≤ 20
10 | C=CC(=O)N1C[C@H](Oc2nc(Nc3ncc(C)s3)cc3c2ccn3CC(C)C)[C@@H](F)C1 [Example 134, 1-((3S,4S)-3-fluoro-4-((1-isobutyl-6-((5-methylthiazol-2-yl)amino)-1H-pyrrolo[3,2-c]pyridin-4-yl)oxy)pyrrolidin-1-yl)prop-2-en-1-one] | – | – | > 500 | > 500
11 | C=CC(=O)N1C[C@@H](F)[C@@H](Oc2nc(Nc3ncc(C)s3)cc3c2ccn3CC(C)C)C1 [Example 135, 1-((3R,4S)-3-fluoro-4-((1-isobutyl-6-((5-methylthiazol-2-yl)amino)-1H-pyrrolo[3,2-c]pyridin-4-yl)oxy)pyrrolidin-1-yl)prop-2-en-1-one] | – | – | > 500 | > 500
12 | C=CC(=O)N1CCC12CC(Oc1nc(Nc3ncc(C)s3)cc3c1ccn3C)C2 (centres unmarked) [Example 136, 1-(6-((1-methyl-6-((5-methylthiazol-2-yl)amino)-1H-pyrrolo[3,2-c]pyridin-4-yl)oxy)-1-azaspiro[3.3]heptan-1-yl)prop-2-en-1-one] | – | – | ≤ 20 | ≤ 20
13 | C=CC(=O)N1CCC12CC(Oc1nc(Nc3ncc(C)s3)cc3c1ccn3CC(C)C)C2 (centres unmarked) [Example 137, 1-(6-((1-isobutyl-6-((5-methylthiazol-2-yl)amino)-1H-pyrrolo[3,2-c]pyridin-4-yl)oxy)-1-azaspiro[3.3]heptan-1-yl)prop-2-en-1-one] | – | – | ≤ 20 | ≤ 20
14 | C=CC(=O)N1CC[C@H](Oc2nc(Nc3cc(F)ccc3C)cc3c2ccn3C)C1 [Example 138, (S)-1-(3-((6-((5-fluoro-2-methylphenyl)amino)-1-methyl-1H-pyrrolo[3,2-c]pyridin-4-yl)oxy)pyrrolidin-1-yl)prop-2-en-1-one] | – | – | > 500 | > 500
15 | C=CC(=O)N1C[C@H](F)[C@H](Oc2nc(Nc3cc(F)ccc3C)cc3c2ccn3C)C1 [Example 139, 1-((3S,4R)-3-fluoro-4-((6-((5-fluoro-2-methylphenyl)amino)-1-methyl-1H-pyrrolo[3,2-c]pyridin-4-yl)oxy)pyrrolidin-1-yl)prop-2-en-1-one] | – | – | > 500 | > 500
16 | C=CC(=O)N1CC[C@H](Oc2nc(Nc3ncc(C)s3)cc3c2ccn3CC(C)(C)O)C1 [Example 140, (S)-1-(3-((1-(2-hydroxy-2-methylpropyl)-6-((5-methylthiazol-2-yl)amino)-1H-pyrrolo[3,2-c]pyridin-4-yl)oxy)pyrrolidin-1-yl)prop-2-en-1-one] | – | – | ≤ 20 | ≤ 20
17 | C=CC(=O)N1C[C@H](F)[C@H](Oc2nc(Nc3ncc(C)s3)cc3c2ccn3CC(C)(C)O)C1 [Example 141, 1-((3S,4R)-3-fluoro-4-((1-(2-hydroxy-2-methylpropyl)-6-((5-methylthiazol-2-yl)amino)-1H-pyrrolo[3,2-c]pyridin-4-yl)oxy)pyrrolidin-1-yl)prop-2-en-1-one] | – | – | ≤ 20 | ≤ 20
18 | C=CC(=O)N1CC(Oc2nc(Nc3ncc(C)s3)cc3c2ccn3C2CCCC2)C1 [Example 142, 1-(3-((1-cyclopentyl-6-((5-methylthiazol-2-yl)amino)-1H-pyrrolo[3,2-c]pyridin-4-yl)oxy)azetidin-1-yl)prop-2-en-1-one] | – | – | ≤ 20 | ≤ 20
19 | C=CC(=O)N1CC[C@@H](Oc2nc(Nc3ncc(C)s3)cc3c2ccn3C2CCCC2)C1 [Example 143, (R)-1-(3-((1-cyclopentyl-6-((5-methylthiazol-2-yl)amino)-1H-pyrrolo[3,2-c]pyridin-4-yl)oxy)pyrrolidin-1-yl)prop-2-en-1-one] | – | – | > 500 | > 500
20 | C=CC(=O)N1CC[C@@H](Oc2nc(Nc3ncc(C)s3)cc3c2ccn3CC2CC2)C1 [Example 144, (R)-1-(3-((1-(cyclopropylmethyl)-6-((5-methylthiazol-2-yl)amino)-1H-pyrrolo[3,2-c]pyridin-4-yl)oxy)pyrrolidin-1-yl)prop-2-en-1-one] | – | – | > 500 | > 500
21 | C=CC(=O)N1CC(Oc2nc(Nc3ncc(C)s3)cc3c2ccn3CC2CC2)C1 [Example 145, 1-(3-((1-(cyclopropylmethyl)-6-((5-methylthiazol-2-yl)amino)-1H-pyrrolo[3,2-c]pyridin-4-yl)oxy)azetidin-1-yl)prop-2-en-1-one] | – | – | ≤ 20 | ≤ 20
22 | C=CC(=O)N1CC(Oc2nc(Nc3ncc(C)s3)cc3c2ccn3CCOC)C1 [Example 146, 1-(3-((1-(2-methoxyethyl)-6-((5-methylthiazol-2-yl)amino)-1H-pyrrolo[3,2-c]pyridin-4-yl)oxy)azetidin-1-yl)prop-2-en-1-one] | – | – | ≤ 20 | ≤ 20
23 | C=CC(=O)N1C[C@H](F)[C@H](Oc2nc(Nc3ncc(C)s3)cc3c2ccn3CCOC)C1 [Example 147, 1-((3S,4R)-3-fluoro-4-((1-(2-methoxyethyl)-6-((5-methylthiazol-2-yl)amino)-1H-pyrrolo[3,2-c]pyridin-4-yl)oxy)pyrrolidin-1-yl)prop-2-en-1-one] | – | – | ≤ 20 | ≤ 20
24 | C=CC(=O)N1CCC[C@H](Oc2nc(Nc3ncc(C)s3)cc3c2ccn3CCOC)C1 [Example 148, (S)-1-(3-((1-(2-methoxyethyl)-6-((5-methylthiazol-2-yl)amino)-1H-pyrrolo[3,2-c]pyridin-4-yl)oxy)piperidin-1-yl)prop-2-en-1-one] | – | – | ≤ 20 | ≤ 20
25 | C=CC(=O)N1CCC[C@H](Oc2nc(Nc3ncc(C)s3)cc3c2ccn3CC2CC2)C1 [Example 149, (S)-1-(3-((1-(cyclopropylmethyl)-6-((5-methylthiazol-2-yl)amino)-1H-pyrrolo[3,2-c]pyridin-4-yl)oxy)piperidin-1-yl)prop-2-en-1-one] | – | – | ≤ 20 | ≤ 20

— EP4707277A1, “NOVEL HETEROCYCLIC AMINE DERIVATIVES AND PHARMACEUTICAL COMPOSITION COMPRISING SAME” (Daewoong Pharmaceutical Co., Ltd., priority 2023, dated 2024)
